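Assay format: 96-well plates, 48-hour exposure. TGI marks complete inhibition of growth.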
Assays:
Test in all cases: NCI-60 cell line screen, 48 h
IGROV1 ovarian = tested on: IGROV1 ovarian
LOX IMVI melanoma = tested on: LOX IMVI melanoma
SK-MEL-5 melanoma = tested on: SK-MEL-5 melanoma
SN12C renal = tested on: SN12C renal
UO-31 renal = tested on: UO-31 renal
UACC-62 melanoma = tested on: UACC-62 melanoma
RXF 393 renal = tested on: RXF 393 renal
U251 CNS = tested on: U251 CNS
SF-268 CNS = tested on: SF-268 CNS
PC-3 prostate = tested on: PC-3 prostate
HOP-92 NSCLC = tested on: HOP-92 NSCLC
NCI-H460 lung = tested on: NCI-H460 lung
RPMI-8226 leukemia = tested on: RPMI-8226 leukemia
SK-OV-3 ovarian = tested on: SK-OV-3 ovarian
CCRF-CEM leukemia = tested on: CCRF-CEM leukemia
HL-60(TB) leukemia = tested on: HL-60(TB) leukemia
SK-MEL-28 melanoma = tested on: SK-MEL-28 melanoma
T-47D breast = tested on: T-47D breast
SW-620 colon = tested on: SW-620 colon
A498 renal = tested on: A498 renal

| SMILES | TGI (IGROV1 ovarian) [µM] | TGI (LOX IMVI melanoma) [µM] | TGI (SK-MEL-5 melanoma) [µM] | TGI (SN12C renal) [µM] | TGI (UO-31 renal) [µM] | TGI (UACC-62 melanoma) [µM] | TGI (RXF 393 renal) [µM] | TGI (U251 CNS) [µM] | TGI (SF-268 CNS) [µM] | TGI (PC-3 prostate) [µM] | TGI (HOP-92 NSCLC) [µM] | TGI (NCI-H460 lung) [µM] | TGI (RPMI-8226 leukemia) [µM] | TGI (SK-OV-3 ovarian) [µM] | TGI (CCRF-CEM leukemia) [µM] | TGI (HL-60(TB) leukemia) [µM] | TGI (SK-MEL-28 melanoma) [µM] | TGI (T-47D breast) [µM] | TGI (SW-620 colon) [µM] | TGI (A498 renal) [µM] |
| --- | --- | --- | --- | --- | --- | --- | --- | --- | --- | --- | --- | --- | --- | --- | --- | --- | --- | --- | --- | --- |
| C=CC1(c2ccc(Cl)c(Cl)c2)OCCO1 | > 100 | > 100 | > 100 | > 100 | > 100 | > 100 | > 100 | > 100 | > 100 | > 100 | > 100 | > 100 | > 100 | > 100 | > 100 | 67.5 | > 100 | > 100 | > 100 |  |
| COc1ccc(Cc2nc3cc(Cl)ccc3o2)cc1 | > 100 | > 100 | 31.1 | > 100 | > 100 | > 100 | 70.2 | > 100 | > 100 | > 100 | > 100 | > 100 | 83.9 | > 100 | > 100 | > 100 | > 100 | 91.1 | > 100 |  |
| CN(C)c1ccc(/C=C2\C[C@H]3[C@@H]4CCC5=CC(=O)CC[C@]5(C)[C@H]4CC[C@]3(C)C2=O)cc1 | > 100 | 41.7 | 32.3 | > 100 | > 100 | > 100 | > 100 | 85.6 | > 100 | 66.8 | 66.1 | 51.1 | > 100 | > 100 |  | > 100 | > 100 | > 100 | > 100 | > 100 |
| C[C@]1(O)CC(=O)c2c(c(-c3ccc4cc5c(c(O)c4c3O)C(=O)C[C@@](C)(O)C5)c3cccc(O)c3c2O)C1 | 22.8 | 26.6 | 14 | 15.8 | 14.8 | 27 | 17.8 | 12.3 | 17.9 | 13.2 | 8.72 | 11.3 | 47.8 | 24.4 | > 100 |  | 23.2 | 14.4 | 47 | 16.4 |
| CCOC(=O)CSc1[nH]c2nc(C)nc(Cl)c2c1C#N | > 10 | > 10 | > 10 | > 10 |  | > 10 | > 10 |  | > 10 | > 10 | > 10 |  | > 10 | > 10 | > 10 | > 10 | > 10 | > 10 | > 10 |  |
| Nc1cc(OCc2ccccc2)c(OCc2ccccc2)cc1C=O | > 100 | 77.2 | 93.1 | > 100 |  |  |  | 93.9 | > 100 | > 100 |  | 52.8 | > 100 | > 100 | > 100 | 40 | > 100 | > 100 | > 100 | 44.2 |
| Cc1ccc2c(=O)c(-c3nnsn3)c[nH]c2n1 | > 100 | > 100 | > 100 | > 100 | > 100 | > 100 | > 100 | > 100 | > 100 | > 100 |  | > 100 | > 100 |  | > 100 | > 100 | > 100 | > 100 | > 100 | > 100 |
| CC(=O)O[C@@]12[C@@H]3O[C@@]4(O)C[C@]5(C)[C@H]6C[C@@](C(C)C)(O[C@H]5c5ccoc5)O[C@H]1[C@]6(C4)O[C@]2(O)C(C)=CC3(C)C | > 100 | > 100 | > 100 | > 100 | > 100 | > 100 | > 100 | > 100 | > 100 | > 100 | > 100 |  | > 100 | > 100 | > 100 | > 100 | > 100 | > 100 | > 100 |  |
| CN(C)C(=O)c1nnsc1NN=O | > 100 | > 100 | > 100 | > 100 | > 100 | > 100 | > 100 | > 100 | > 100 | > 100 | > 100 | > 100 | > 100 | > 100 | > 100 | > 100 | > 100 | > 100 | > 100 |  |
| CCOC(=O)CC/C(C)=N\n1c(Cc2ccc(Cl)cc2)n[nH]c1=O | > 100 | > 100 | > 100 | > 100 | > 100 | > 100 | > 100 | > 100 | > 100 | > 100 |  | > 100 | > 100 |  |  | > 100 | > 100 | > 100 | > 100 |  |
| NC(N)=NS(=O)(=O)c1ccc(Nc2c3ccccc3nc3ccc(C(=O)Nc4ccc(S(N)(=O)=O)cc4)cc23)cc1 | > 100 | > 100 | > 100 | > 100 | > 100 | > 100 | > 100 | > 100 | > 100 | > 100 | > 100 | > 100 | > 100 | > 100 | > 100 | > 100 | > 100 | > 100 | > 100 |  |
| NC(=S)SC1=NNC2(C(=O)N1)c1ccccc1-c1ccccc12 | > 10 | > 10 | > 10 | > 10 | > 10 | > 10 | > 10 |  | > 10 | > 10 | > 10 | > 10 | > 10 | > 10 | > 10 | > 10 | > 10 | > 10 | > 10 |  |
| CCOC(=O)c1c(NS(=O)(=O)c2ccc(Br)cc2)sc2c1CCCC2 | 8.79 | 27.3 | 18.2 | 12.1 | 15.7 | 17.7 | 6.98 | 25.4 | 10.9 | 11.5 |  | 13.9 | 30.5 | 50 | > 100 | > 100 | 32.6 | 14.5 | 30.6 | 42.2 |
